Experiments:
[1] = test system: rice (Oryza sative, variety: Koshihikari); assay: Paddy field treatment (Test Example 3), crop; type: in vivo, Oryza sativa; conditions: transplanted rice two-leaf period, water surface treatment 10th day after transplantation, 1 kg active ingredient per hectare, evaluated 21st day, lower index = higher safety
Summary of the method: (§1)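 Index scores for herbicidal effect were read 21 days after treatment, higher meaning stronger effect. Treatment was a water-diluted wettable powder dropped onto flooded paddy soil at 1 kg active ingredient per hectare, 10 days after rice transplantation.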

[2] = test system: wheat (Triticum aestivum); assay: Upland soil treatment (Test Example 2), crop; type: in vivo; conditions: soil surface treatment next day after sowing, 1 kg active ingredient per hectare, evaluated 21st day, lower index = higher safety
Summary of the method: (§2)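 Scores were assigned 21 days after treatment on an index where higher means stronger weed control and, for crops, lower means greater safety. A wettable-powder formulation at 1 kg a.i./ha was applied to the soil surface one day after sowing seeds under about 1 cm of upland soil.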

soybean (Glycine max) [3] = assay: Upland soil treatment (Test Example 2), crop; type: in vivo; conditions: soil surface treatment next day after sowing, 1 kg active ingredient per hectare, evaluated 21st day, lower index = higher safety
Summary of the method: as §2

Echinochloa spp. = assay: Paddy field treatment (Test Example 3); type: in vivo, Echinochloa crusgalli; conditions: paddy pot, submerged 4 cm, dropped on water surface 10th day after transplantation, 1 kg active ingredient per hectare, evaluated 21st day
Summary of the method: as §1

Chenopodium album [4] = assay: Upland soil treatment (Test Example 2); type: in vivo; conditions: soil surface treatment next day after sowing, wettable powder, 1 kg active ingredient per hectare, evaluated 21st day after application
Summary of the method: as §2

Setaria viridis [5] = assay: Upland soil treatment (Test Example 2); type: in vivo; conditions: soil surface treatment next day after sowing, wettable powder, 1 kg active ingredient per hectare, evaluated 21st day after application
Summary of the method: as §2

Stellaria media [6] = assay: Upland soil treatment (Test Example 2); type: in vivo; conditions: soil surface treatment next day after sowing, wettable powder, 1 kg active ingredient per hectare, evaluated 21st day after application
Summary of the method: as §2

Digitaria adscendens [7] = assay: Upland soil treatment (Test Example 2); type: in vivo; conditions: soil surface treatment next day after sowing, wettable powder, 1 kg active ingredient per hectare, evaluated 21st day after application
Summary of the method: as §2

[8] = test system: wheat (Triticum aestivum); assay: Upland field foliage treatment (Test Example 1), crop; type: in vivo; conditions: foliage treatment 14th day after sowing, 1 kg active ingredient per hectare, evaluated 21st day, lower index = higher safety
Summary of the method: (§3)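 Foliage application took place two weeks after sowing, at an active-ingredient rate of 1 kg/ha from a water-diluted wettable powder. Rating followed on the 21st day after application, using an index scale on which crop values rise as injury increases.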

soybean (Glycine max) [9] = assay: as above; type: in vivo; conditions: foliage treatment 14th day after sowing, 1 kg active ingredient per hectare, evaluated 21st day, lower index = higher safety
Summary of the method: as §3

Scirpus juncoides = assay: Paddy field treatment (Test Example 3); type: in vivo; conditions: paddy pot, submerged 4 cm, dropped on water surface 10th day after transplantation, 1 kg active ingredient per hectare, evaluated 21st day
Summary of the method: as §1

Monochoria vaginalis = assay: Paddy field treatment (Test Example 3); type: in vivo; conditions: paddy pot, submerged 4 cm, dropped on water surface 10th day after transplantation, 1 kg active ingredient per hectare, evaluated 21st day
Summary of the method: as §1

Ammannia multiflora = assay: Paddy field treatment (Test Example 3); type: in vivo; conditions: paddy pot, submerged 4 cm, dropped on water surface 10th day after transplantation, 1 kg active ingredient per hectare, evaluated 21st day
Summary of the method: as §1

Chenopodium album [10] = assay: Upland field foliage treatment (Test Example 1); type: in vivo; conditions: foliage treatment 14th day after sowing, wettable powder, 1 kg active ingredient per hectare, evaluated 21st day after application
Summary of the method: as §3

Setaria viridis [11] = assay: Upland field foliage treatment (Test Example 1); type: in vivo; conditions: foliage treatment 14th day after sowing, wettable powder, 1 kg active ingredient per hectare, evaluated 21st day after application
Summary of the method: as §3

Stellaria media [12] = assay: Upland field foliage treatment (Test Example 1); type: in vivo; conditions: foliage treatment 14th day after sowing, wettable powder, 1 kg active ingredient per hectare, evaluated 21st day after application
Summary of the method: as §3

Digitaria adscendens [13] = assay: Upland field foliage treatment (Test Example 1); type: in vivo; conditions: foliage treatment 14th day after sowing, wettable powder, 1 kg active ingredient per hectare, evaluated 21st day after application
Summary of the method: as §3

## COC=C(Cn1nc(-c2ccccc2)c(C)c1C)C(=O)OC [Compound 33]
[1]
  Herbicidal activity Oryza sativa: 1 (herbicidal effect of not less than 10% by weight and less than 30% by weight)
[2]
  Herbicidal activity Triticum aestivum: 0 (herbicidal effect of not less than 0% by weight and less than 10% by weight)
Soybean (Glycine max) [3]
  Herbicidal activity Glycine max: 0 (herbicidal effect of not less than 0% by weight and less than 10% by weight)
Echinochloa spp.
  Herbicidal activity Echinochloa spp.: 5 (herbicidal effect of not less than 90% by weight)
Chenopodium album [4]
  Herbicidal activity Chenopodium album: 4 (herbicidal effect of not less than 70% by weight and less than 90% by weight)
Setaria viridis [5]
  Herbicidal activity Setaria viridis: 4 (herbicidal effect of not less than 70% by weight and less than 90% by weight)
Stellaria media [6]
  Herbicidal activity Stellaria media: 4 (herbicidal effect of not less than 70% by weight and less than 90% by weight)
Digitaria adscendens [7]
  Herbicidal activity Digitaria adscendens: 4 (herbicidal effect of not less than 70% by weight and less than 90% by weight)
[8]
  Herbicidal activity Triticum aestivum: 0 (herbicidal effect of not less than 0% by weight and less than 10% by weight)
Soybean (Glycine max) [9]
  Herbicidal activity Glycine max: 0 (herbicidal effect of not less than 0% by weight and less than 10% by weight)
Scirpus juncoides
  Herbicidal activity Scirpus juncoides: 5 (herbicidal effect of not less than 90% by weight)
Monochoria vaginalis
  Herbicidal activity Monochoria vaginalis: 5 (herbicidal effect of not less than 90% by weight)
Ammannia multiflora
  Herbicidal activity Ammannia multiflora: 5 (herbicidal effect of not less than 90% by weight)
Chenopodium album [10]
  Herbicidal activity Chenopodium album: 5 (herbicidal effect of not less than 90% by weight)
Setaria viridis [11]
  Herbicidal activity Setaria viridis: 4 (herbicidal effect of not less than 70% by weight and less than 90% by weight)
Stellaria media [12]
  Herbicidal activity Stellaria media: 5 (herbicidal effect of not less than 90% by weight)
Digitaria adscendens [13]
  Herbicidal activity Digitaria adscendens: 5 (herbicidal effect of not less than 90% by weight)

## COC=C(Cn1nc(-c2cc(C)ccc2C)c(Cl)c1C)C(=O)OC [Compound 19]
[1]
  Herbicidal activity Oryza sativa: 1 (herbicidal effect of not less than 10% by weight and less than 30% by weight)
[2]
  Herbicidal activity Triticum aestivum: 0 (herbicidal effect of not less than 0% by weight and less than 10% by weight)
Soybean (Glycine max) [3]
  Herbicidal activity Glycine max: 0 (herbicidal effect of not less than 0% by weight and less than 10% by weight)
Echinochloa spp.
  Herbicidal activity Echinochloa spp.: 5 (herbicidal effect of not less than 90% by weight)
Chenopodium album [4]
  Herbicidal activity Chenopodium album: 4 (herbicidal effect of not less than 70% by weight and less than 90% by weight)
Setaria viridis [5]
  Herbicidal activity Setaria viridis: 4 (herbicidal effect of not less than 70% by weight and less than 90% by weight)
Stellaria media [6]
  Herbicidal activity Stellaria media: 5 (herbicidal effect of not less than 90% by weight)
Digitaria adscendens [7]
  Herbicidal activity Digitaria adscendens: 5 (herbicidal effect of not less than 90% by weight)
[8]
  Herbicidal activity Triticum aestivum: 0 (herbicidal effect of not less than 0% by weight and less than 10% by weight)
Soybean (Glycine max) [9]
  Herbicidal activity Glycine max: 0 (herbicidal effect of not less than 0% by weight and less than 10% by weight)
Scirpus juncoides
  Herbicidal activity Scirpus juncoides: 5 (herbicidal effect of not less than 90% by weight)
Monochoria vaginalis
  Herbicidal activity Monochoria vaginalis: 5 (herbicidal effect of not less than 90% by weight)
Ammannia multiflora
  Herbicidal activity Ammannia multiflora: 5 (herbicidal effect of not less than 90% by weight)
Chenopodium album [10]
  Herbicidal activity Chenopodium album: 5 (herbicidal effect of not less than 90% by weight)
Setaria viridis [11]
  Herbicidal activity Setaria viridis: 4 (herbicidal effect of not less than 70% by weight and less than 90% by weight)
Stellaria media [12]
  Herbicidal activity Stellaria media: 4 (herbicidal effect of not less than 70% by weight and less than 90% by weight)
Digitaria adscendens [13]
  Herbicidal activity Digitaria adscendens: 5 (herbicidal effect of not less than 90% by weight)

## COC=C(Cn1nc(-c2cc(Cl)ccc2Cl)c(Cl)c1C)C(=O)OC [Compound 22]
[1]
  Herbicidal activity Oryza sativa: 1 (herbicidal effect of not less than 10% by weight and less than 30% by weight)
[2]
  Herbicidal activity Triticum aestivum: 0 (herbicidal effect of not less than 0% by weight and less than 10% by weight)
Soybean (Glycine max) [3]
  Herbicidal activity Glycine max: 0 (herbicidal effect of not less than 0% by weight and less than 10% by weight)
Echinochloa spp.
  Herbicidal activity Echinochloa spp.: 5 (herbicidal effect of not less than 90% by weight)
Chenopodium album [4]
  Herbicidal activity Chenopodium album: 5 (herbicidal effect of not less than 90% by weight)
Setaria viridis [5]
  Herbicidal activity Setaria viridis: 5 (herbicidal effect of not less than 90% by weight)
Stellaria media [6]
  Herbicidal activity Stellaria media: 5 (herbicidal effect of not less than 90% by weight)
Digitaria adscendens [7]
  Herbicidal activity Digitaria adscendens: 5 (herbicidal effect of not less than 90% by weight)
[8]
  Herbicidal activity Triticum aestivum: 0 (herbicidal effect of not less than 0% by weight and less than 10% by weight)
Soybean (Glycine max) [9]
  Herbicidal activity Glycine max: 0 (herbicidal effect of not less than 0% by weight and less than 10% by weight)
Scirpus juncoides
  Herbicidal activity Scirpus juncoides: 5 (herbicidal effect of not less than 90% by weight)
Monochoria vaginalis
  Herbicidal activity Monochoria vaginalis: 5 (herbicidal effect of not less than 90% by weight)
Ammannia multiflora
  Herbicidal activity Ammannia multiflora: 5 (herbicidal effect of not less than 90% by weight)
Chenopodium album [10]
  Herbicidal activity Chenopodium album: 5 (herbicidal effect of not less than 90% by weight)
Setaria viridis [11]
  Herbicidal activity Setaria viridis: 4 (herbicidal effect of not less than 70% by weight and less than 90% by weight)
Stellaria media [12]
  Herbicidal activity Stellaria media: 5 (herbicidal effect of not less than 90% by weight)
Digitaria adscendens [13]
  Herbicidal activity Digitaria adscendens: 5 (herbicidal effect of not less than 90% by weight)

## CCCc1c(Cl)c(-c2cccc(Cl)c2)nn1CC(=COC)C(=O)OC [Compound 40]
[1]
  Herbicidal activity Oryza sativa: 0 (herbicidal effect of not less than 0% by weight and less than 10% by weight)
[2]
  Herbicidal activity Triticum aestivum: 0 (herbicidal effect of not less than 0% by weight and less than 10% by weight)
Soybean (Glycine max) [3]
  Herbicidal activity Glycine max: 0 (herbicidal effect of not less than 0% by weight and less than 10% by weight)
Echinochloa spp.
  Herbicidal activity Echinochloa spp.: 3 (herbicidal effect of not less than 50% by weight and less than 70% by weight)
Chenopodium album [4]
  Herbicidal activity Chenopodium album: 4 (herbicidal effect of not less than 70% by weight and less than 90% by weight)
Setaria viridis [5]
  Herbicidal activity Setaria viridis: 4 (herbicidal effect of not less than 70% by weight and less than 90% by weight)
Stellaria media [6]
  Herbicidal activity Stellaria media: 4 (herbicidal effect of not less than 70% by weight and less than 90% by weight)
Digitaria adscendens [7]
  Herbicidal activity Digitaria adscendens: 4 (herbicidal effect of not less than 70% by weight and less than 90% by weight)
[8]
  Herbicidal activity Triticum aestivum: 0 (herbicidal effect of not less than 0% by weight and less than 10% by weight)
Soybean (Glycine max) [9]
  Herbicidal activity Glycine max: 0 (herbicidal effect of not less than 0% by weight and less than 10% by weight)
Scirpus juncoides
  Herbicidal activity Scirpus juncoides: 3 (herbicidal effect of not less than 50% by weight and less than 70% by weight)
Monochoria vaginalis
  Herbicidal activity Monochoria vaginalis: 3 (herbicidal effect of not less than 50% by weight and less than 70% by weight)
Ammannia multiflora
  Herbicidal activity Ammannia multiflora: 3 (herbicidal effect of not less than 50% by weight and less than 70% by weight)
Chenopodium album [10]
  Herbicidal activity Chenopodium album: 4 (herbicidal effect of not less than 70% by weight and less than 90% by weight)
Setaria viridis [11]
  Herbicidal activity Setaria viridis: 4 (herbicidal effect of not less than 70% by weight and less than 90% by weight)
Stellaria media [12]
  Herbicidal activity Stellaria media: 4 (herbicidal effect of not less than 70% by weight and less than 90% by weight)
Digitaria adscendens [13]
  Herbicidal activity Digitaria adscendens: 4 (herbicidal effect of not less than 70% by weight and less than 90% by weight)
